Legend:
[1] = tested on: primary cortical neurons; test: LDH release from cultured neurons after OGD; type: cell-based, mice; conditions: 10 μM, OGD 1 hour, pH 7.0
Protocol: Figure a illustrates cortical neurons staining from wild-type (ASIC1a+/+) and gene-deficient (ASIC1a−/−) mice primary cultures in the calcein-PI staining experiment. Blue green represents viable cells, and red represents dead cell nuclei. 10 μM CGS19755 and 10 μM LK-2 were added respectively in the cell culture medium under pH 7.0 conditions with OGD to be treated for 1 hour. Figure c illustrates, after being treated in the same experimental groups as Figure a, the analysis of each group of LDH of relative release levels. Figure d illustrates PI staining of ASIC1a-transfected CHO cells after 1 hour of treatment with pH 7.0 and 500 μM glutamate (Glu). Green represents green fluorescent protein (GFP), indicating ASIC1a-expressing CHO cells (GFP+), and red represents dead cell nuclei. The concentration of LK-2 was 10 μM. GFP-indicates ASIC1a-untransfected cells. […]
The LDH assay kit (Biyuntian) was used to measure the release of LDH from cultured neurons after 1 hour of oxygen-glucose deprivation (OGD). […] The absorbance of the target was measured at 490 nm wavelength using a spectrophotometer (Thermo Scientific), while the background absorbance was measured at 620 nm wavelength. […]

[2] = tested on: MCAO model; test: MCAO cerebral ischemia model, cerebral infarction volume (TTC staining); type: in vivo, mice; conditions: 30 mg/kg intraperitoneal; MCAO 30 minutes, 24 hours after ischemia
Protocol: Figure a illustrates the TTC staining results of brain slices obtained from animals sacrificed 24 hours after different drug treatments following MCAO ischemia for 30 minutes. The dark areas represent normal brain tissue, while the white areas represent infarcted brain tissue. CGS19755 was administered at a concentration of 1 mg/kg (intraperitoneal injection), PcTX-1 was administered at a concentration of 100 ng/kg (ASIC1a blocker, intranasal drip), LK-2 was administered at concentrations of 10 mg/kg or 30 mg/kg (intraperitoneal injection), and Saline was used as the control group. […] The specific steps are as follows: a transient focal ischemic model was formed by occluding the middle cerebral artery for 30 minutes in wild-type or ASIC1a gene knockout mice. The animals were anesthetized using the animal anesthesia machine (RWD). During the induction of anesthesia, the animals are placed in a transparent chamber (15×25×30 cm) containing 2% isoflurane. During the MCAO procedure, the animals are worn a mask delivering 1% isoflurane. Complete occlusion of the middle cerebral artery was confirmed using continuous laser Doppler blood flow measurement (Moor, FLPI-2). Animals with less than 50% reduction in blood flow during MCAO were excluded. […] In this test, mice were placed on the rotating rod and the time to fall was recorded. […]

## O=C(O)C1CN(C(c2ccccc2)P(=O)(O)O)CCN1 (centres unmarked) [LK-2]
[1]
  reduction of lactate dehydrogenase release: 50%
[2]
  reduction of volume of cerebral infarction: 52.8%

— patent publication US20250120988A1, “SMALL MOLECULE COMPOUND FOR TREATING ISCHEMIC STROKE, ITS PREPARATION METHOD, AND APPLICATION” (SHANGHAI SIXTH PEOPLE'S HOSPITAL, priority 2023, published 2025)
